Data as given in US20250120932A1, “PHARMACEUTICAL COMPOSITION” (NEUROPRO THERAPEUTICS, INC., priority 2021, published 2025).
Several values for one entry are separate records, joined by “and”; a condition that tells them apart may be missing. Equal entries are not always repeated. Where two headings read alike, the source gives them in different places.

What was measured:
[1] = Solubility in injection vehicle compositions; type: physicochemical; details: 40% PEG-400, 20% Propylene glycol, 5% Ethanol, 35% water
Text: Multiple vehicle compositions were investigated, resulting in a clear dosing solution or suspension at the time of the preparation or shortly after the preparation. Vehicles tested included 55% Polyethylene glycol 400 (PEG-400) in water, 41% PEG-400, 12% Ethanol, 47% water, 45% PEG-400, 10% DMSO, 45% Water, 31% PEG-400, 31% Tetraglycol, 15% Caprylocaproyl Polyoxylglycerides (Labrasol ALF), 23% water, 30% PEG-400, 10% N-Methyl Pyrrolidone, 10% DMSO, 50% water, 25% PEG-400, 10% DMSO, 20% Tetraglycol, 45% water, 20% Ethanol in water, 20% Hydroxypropyl-β-Cyclodextrin in water, 11% DMSO, 22% PEG-400, 22% Tetraglycol, 44% water, 44% PEG-400, 0.4% Poloxamer-188, 22% N-Methyl Pyrrolidone, 33% water, and 20% PEG-400, 15% Hydroxypropyl-β-Cyclodextrin in water.
After filtration with a 0.22 μm PVDF filter, the sample stayed clear for up to 7 days. The compositions selected for animal studies are described in Table 67 and Table 68.

[2] = Oral delivery of unformulated Bumetanide Dibenzylamide in Beagle dogs, pharmacokinetics and bioavailability; type: in vivo
[3] = Crossover pharmacokinetic study of Bumetanide Dibenzylamide formulations (IN, SL, IM, PO, SC, IR) in Beagle dogs, plasma LC-MS/MS; type: in vivo; details: for half-life: read-out: t½ (converted)
Description: Male and female Beagle dogs are assigned to two groups with 2 males and 2 females in each group. The study is conducted in 3 legs with Leg 1 consisting of IM and SL administration, Leg 2 consisting of IN and PO administration, and Leg 3 consisting of SC and IR administration.
During intranasal administration, the composition is administered by gently tilting the animals head back and the intranasal dose is delivered via a syringe and atomizer. During sublingual administration, the composition is administered via a quick dissolving tablet. The tablet is placed in the sublingual space and the mouth held shut for approximately 60-90 seconds. After one minute, the mouth of the animal is opened to confirm that the tablet has fully dissolved. During intramuscular administration, the composition is administered into the bicep femoris (rear thigh). The dose site is gently shaved prior to dosing. A syringe with a 25 g needle is utilized. During oral administration, the composition is administered via three capsules placed at the back of the animal's mouth and the placement is followed by a 10 mL drinking water flush to assure that the animal swallowed the capsules. During subcutaneous administration, the composition is administered into the dorsal subcutaneous space directly at the scruff of the neck of the animal. The dose site is gently shaved prior to dosing. A syringe with a 25 g needle is utilized. During intrarectal administration, the composition is administered by gently placing a 1 cc syringe in the rectum of the animal.
All animals are fasted for approximately 12 hours prior to dosing. Animals are fed four hours post dosing with water offered ad libitum throughout the study. All animals completed the study. […] Blood and urine samples are collected out to 24 hours.
Blood sample are collected from the jugular vein, or other suitable vessel via direct venipuncture, placed into a chilled tube containing K2EDTA as the anticoagulant, and inverted several times to mix. Blood samples are kept on wet ice until centrifugation.
The assay is verified with respect to standard bioanalytical methodology including acceptable accuracy and precision based upon quality control sample analysis and results. The range of the method for both analytes is from about 0.250 ng/ml to about 250 ng/mL.
The PK parameters defined in Table 10 are calculated by non-compartmental methods using individual animal concentration-time data. […] Nominal blood sampling times are used in the analysis. […] Individual below quantitation limits (BQL) results are set to zero for all calculations. No animals are excluded from the analysis. In one aspect, non-compartmental pharmacokinetic analysis provides observed or calculated values of Cmax, Tmax, and AUClast for all animals and estimates of AUCinf and CL/F for those animals where a terminal phase half-life (t1/2) could be estimated.

[4] = both sexes, Beagle, dog, plasma, po, 30 mg, PO capsules
[5] = both sexes, Beagle, dog, plasma, sc, 15 mg

For `CCCCNc1cc(C(=O)N(Cc2ccccc2)Cc2ccccc2)cc(S(N)(=O)=O)c1Oc1ccccc1` [Bumetanide Dibenzylamide, N, N-dibenzyl 3-aminosulfonyl-5-butylamino-4-phenoxybenzamide], the “time sample stayed clear after filtration” value ([1]; 0.22 μm PVDF filter) was “up to 7 days”, the “time as clear solution” value ([1]; room temperature) was “at least 3 hours” and the bioavailability ([2]; Beagle, dog, in vivo, 30 mg, oral non-formulated, read-out: Absolute Bioavailability) was about 5.1%. For the same molecule, the concentration at 0.5 h ([2]; Beagle, dog, plasma, oral, 30 mg/kg, Plasma Bumetanide Dibenzylamide concentration, oral non-formulated 30 mg/kg, 0.5 h) was 0.00299 µg/mL, the concentration at 4 h ([2]; Beagle, dog, plasma, oral, 30 mg/kg, Plasma Bumetanide Dibenzylamide concentration, oral non-formulated 30 mg/kg, 4 h) was 0.149 µg/mL and the concentration at 6 h ([2]; Beagle, dog, plasma, oral, 30 mg/kg, Plasma Bumetanide Dibenzylamide concentration, oral non-formulated 30 mg/kg, 6 h) was 0.151 µg/mL. For the same molecule, the concentration at 8 h ([2]; Beagle, dog, plasma, oral, 30 mg/kg, Plasma Bumetanide Dibenzylamide concentration, oral non-formulated 30 mg/kg, 8 h) was 0.101 µg/mL, the concentration at 12 h ([2]; Beagle, dog, plasma, oral, 30 mg/kg, Plasma Bumetanide Dibenzylamide concentration, oral non-formulated 30 mg/kg, 12 h) was 0.0401 µg/mL and the “Plasma Bumetanide Dibenzylamide concentration” value ([2]; oral non-formulated 30 mg/kg, 0.5 h) was 2.17 ng/mL. For the same molecule, the “Plasma Bumetanide Dibenzylamide concentration” value ([2]; oral non-formulated 30 mg/kg, 0.5 h, mean) was 2.58 ng/mL, the “Plasma Bumetanide Dibenzylamide concentration” value ([2]; oral non-formulated 30 mg/kg, 4 h) was 136 ng/mL and the “Plasma Bumetanide Dibenzylamide concentration” value ([2]; oral non-formulated 30 mg/kg, 4 h, mean) was 143 ng/mL. The “Plasma Bumetanide Dibenzylamide concentration” value ([2]; oral non-formulated 30 mg/kg, 6 h) was 153 ng/mL, the “Plasma Bumetanide Dibenzylamide concentration” value ([2]; oral non-formulated 30 mg/kg, 6 h, mean) was 152 ng/mL and the “Plasma Bumetanide Dibenzylamide concentration” value ([2]; oral non-formulated 30 mg/kg, 8 h) was 132 ng/mL. The “Plasma Bumetanide Dibenzylamide concentration” value ([2]; oral non-formulated 30 mg/kg, 8 h, mean) was 117 ng/mL, the “Plasma Bumetanide Dibenzylamide concentration” value ([2]; oral non-formulated 30 mg/kg, 12 h) was 50.5 ng/mL and the “Plasma Bumetanide Dibenzylamide concentration” value ([2]; oral non-formulated 30 mg/kg, 12 h, mean) was 45.3 ng/mL. The AUCinf ([3]; IN, 15 mg) was 0.234 µg·h/mL and 0.224 µg·h/mL and 0.164 µg·h/mL and 0.221 µg·h/mL, the CL/F ([3]; IN, 15 mg) was 64.1 L/h and 66.8 L/h and 91.5 L/h and 67.7 L/h and the “Plasma Bumetanide Dibenzylamide concentration” value ([3]; IN, 15 mg, 24 h) was 3.15 ng/mL and 2.07 ng/mL and 1.59 ng/mL. The “Plasma Bumetanide Dibenzylamide concentration” value ([3]; IN, 15 mg, 24 h, mean) was 2.31 ng/mL, the CL/F ([3]; IN, 15 mg, mean) was 72.5 L/h and the “Mean concentrations of Bumetanide Dibenzylamide” value ([3]; IR, 30 mg, at all times after dosing) was “less than 10 ng/mL”. For the same molecule, the AUCinf ([3]; PO capsules, 30 mg) was 0.98 µg·h/mL and 0.698 µg·h/mL and 0.666 µg·h/mL and 0.91 µg·h/mL, the AUClast ([3]; PO capsules, 30 mg) was 0.675 µg·h/mL and 0.639 µg·h/mL and 0.893 µg·h/mL and the CL/F ([3]; PO capsules, 30 mg) was 30.6 L/h and 43.0 L/h and 45.0 L/h and 33.0 L/h. For the same molecule, the Cmax ([3]; PO capsules, 30 mg) was 0.28 µg/mL and 0.158 µg/mL and 0.175 µg/mL and 0.259 µg/mL, the t½ ([3]; PO capsules, 30 mg) was 5.62 h and 6.79 h and 5.10 h and the “Plasma Bumetanide Dibenzylamide concentration” value ([3]; PO capsules, 30 mg, 2 h) was 280 ng/mL and 158 ng/mL and 175 ng/mL. The “Plasma Bumetanide Dibenzylamide concentration” value ([3]; PO capsules, 30 mg, 2 h, mean) was 218 ng/mL, the “Plasma Bumetanide Dibenzylamide concentration” value ([3]; PO capsules, 30 mg, 4 h) was 85.3 ng/mL and 68.7 ng/mL and 56.9 ng/mL and the “Plasma Bumetanide Dibenzylamide concentration” value ([3]; PO capsules, 30 mg, 4 h, mean) was 76.7 ng/mL. For the same molecule, the “Plasma Bumetanide Dibenzylamide concentration” value ([3]; PO capsules, 30 mg, 8 h) was 21.2 ng/mL and 21.9 ng/mL and 15.7 ng/mL, the “Plasma Bumetanide Dibenzylamide concentration” value ([3]; PO capsules, 30 mg, 8 h, mean) was 20.1 ng/mL and the “Plasma Bumetanide Dibenzylamide concentration” value ([3]; PO capsules, 30 mg, 12 h) was 8.65 ng/mL and 10.5 ng/mL and 7.91 ng/mL. For the same molecule, the “Plasma Bumetanide Dibenzylamide concentration” value ([3]; PO capsules, 30 mg, 12 h, mean) was 9.34 ng/mL, the “Plasma Bumetanide Dibenzylamide concentration” value ([3]; PO capsules, 30 mg, 24 h) was 2.86 ng/mL and 2.84 ng/mL and 2.83 ng/mL and the “Plasma Bumetanide Dibenzylamide concentration” value ([3]; PO capsules, 30 mg, 24 h, mean) was 2.71 ng/mL. The AUClast ([3]; PO capsules, 30 mg, mean) was 0.791 µg·h/mL, the CL/F ([3]; PO capsules, 30 mg, mean) was 37.9 L/h and the t½ ([3]; PO capsules, 30 mg, mean) was 5.85 h. The AUCinf ([3]; SC, 15 mg) was 0.286 µg·h/mL and 0.247 µg·h/mL and 0.158 µg·h/mL, the AUClast ([3]; SC, 15 mg) was 0.0798 µg·h/mL and 0.129 µg·h/mL and 0.0913 µg·h/mL and the CL/F ([3]; SC, 15 mg) was 52.4 L/h and 64.8 L/h and 60.7 L/h and 94.7 L/h. For the same molecule, the t½ ([3]; SC, 15 mg) was 36.2 h and 22.2 h and 19.1 h, the “Plasma Bumetanide Dibenzylamide concentration” value ([3]; SC, 15 mg, 0 h) was 1.65 ng/mL and 2.39 ng/mL and 1.55 ng/mL and the “Plasma Bumetanide Dibenzylamide concentration” value ([3]; SC, 15 mg, 0 h, mean) was 1.75 ng/mL. For the same molecule, the “Plasma Bumetanide Dibenzylamide concentration” value ([3]; SC, 15 mg, 0.5 h) was 2.76 ng/mL and 3.42 ng/mL and 1.81 ng/mL, the “Plasma Bumetanide Dibenzylamide concentration” value ([3]; SC, 15 mg, 0.5 h, mean) was 2.52 ng/mL and the “Plasma Bumetanide Dibenzylamide concentration” value ([3]; SC, 15 mg, 8 h) was 4.54 ng/mL and 7.47 ng/mL and 4.14 ng/mL. The “Plasma Bumetanide Dibenzylamide concentration” value ([3]; SC, 15 mg, 8 h, mean) was 5.71 ng/mL, the “Plasma Bumetanide Dibenzylamide concentration” value ([3]; SC, 15 mg, 12 h) was 3.35 ng/mL and 5.77 ng/mL and 3.22 ng/mL and the “Plasma Bumetanide Dibenzylamide concentration” value ([3]; SC, 15 mg, 12 h, mean) was 4.36 ng/mL. The “Plasma Bumetanide Dibenzylamide concentration” value ([3]; SC, 15 mg, 24 h) was 2.43 ng/mL and 4.30 ng/mL and 2.90 ng/mL, the “Plasma Bumetanide Dibenzylamide concentration” value ([3]; SC, 15 mg, 24 h, mean) was 3.33 ng/mL and the AUClast ([3]; SC, 15 mg, mean) was 0.113 µg·h/mL. The CL/F ([3]; SC, 15 mg, mean) was 68.2 L/h, the t½ ([3]; SC, 15 mg, mean) was 24.8 h and the CL/F ([3]; SL, 30 mg) was 1690 L/h. The Tmax ([3]; SL, 30 mg) was 1.00 h, the Tmax ([3]; SL, 30 mg, mean) was 1.50 h and the adverse reactions ([3]; all routes, 15 or 30 mg) was “no adverse reactions are noted”. For the same molecule, the AUC(0-inf) ([3]; both sexes, Beagle, dog, plasma, 30 mg, IR) was 0.0551 µg·h/mL, the Cmax ([3]; both sexes, Beagle, dog, plasma, 30 mg, IR, 30 mg, read-out: mean Cmax) was 0.00844 µg/mL and the AUC(0-inf) ([3]; both sexes, Beagle, dog, plasma, 30 mg, SL) was 0.0177 µg·h/mL. The Tmax ([3]; both sexes, Beagle, dog, plasma, 30 mg, SL, 30 mg, read-out: Tmax) was 2 h, the half-life ([3]; both sexes, Beagle, dog, plasma, 30 mg, SL, 30 mg) was 5.26 h and the AUC(0-inf) ([3]; both sexes, Beagle, dog, plasma, inhaled or intranasal, 15 mg, IN) was 0.211 µg·h/mL. The AUC(0-inf) [3, 4] was 0.814 µg·h/mL, the AUC(0-t) [3, 4] was 0.956 µg·h/mL and the Cmax ([3]; both sexes, Beagle, dog, plasma, po, 30 mg, PO capsules, 30 mg, read-out: Cmax) was 0.218 µg/mL. It also gave a Tmax ([3]; both sexes, Beagle, dog, plasma, po, 30 mg, PO capsules, 30 mg, read-out: Tmax) of 2 h, a half-life ([3]; both sexes, Beagle, dog, plasma, po, 30 mg, PO capsules, 30 mg) of 5.89 h and an AUC(0-inf) [3, 5] of 0.231 µg·h/mL. It also gave an AUC(0-t) [3, 5] of 0.153 µg·h/mL and a half-life ([3]; both sexes, Beagle, dog, plasma, sc, 15 mg, SC, 15 mg) of 21.5 h.
